Measured values: US4749710A, “Immunosuppressive agents” (priority 1985, dated 1988)
Where two headings read alike, the source gives them in different places.

Assays:
Assay type in all cases: cell-based
[1] = system: murine cytotoxic T-lymphocyte responses; test: cells; details: for CTL activity (% specific ^51 Cr release): 90:1 effector to target
Description: Immunosuppressive Activity of Vitamin D compounds on cytotoxic T lymphocyte Responses-General Test Description
Cytotoxic thymus-derived lymphocytes (CTL) constitute an important aspect of immune function and, as a result, play a key role in the rejection of grafted cells, tissues and organs. It is, therefore, essential to suppress CTL generation in a clinical situation in which CTL function is antithetical to the desired outcome as, for example, in transplantation. Cytotoxic T-lymphocytes have been studied for several years by many investigators and methods to evaluate CTL responses in vitro are well established.
As described below, CTL responses as affected by Vitamin D derivatives, were studied in vitro using cells from lab animals and human volunteers. Cytotoxic T-lymphocytes were generated from responder lymphoid cells in tissue culture medium during an incubation period of 6 days by exposure to foreign stimulator cells, i.e. from a genetically disparate source. A portion of the resultant effector cells were CTL capable of killing fresh cells related to the stimulator cells employed in the 6 day culture. To detect killing of cells by CTL, fresh target cells were incubated in excess ^51 chromium (as sodium chromate) until they were extensively labelled. Since target cells will retain the internalized radioisotope as long as they are viable but release the label when they are killed, CTL activity was assessed by quantitating the chromium released from target cells after a 4 or 18 hour incubation with CTL. Immunosuppression produced by Vitamin D derivatives was gauged as the ability to inhibit CTL responses during the initial incubation period relative to control cultures to which no Vitamin D derivative was added.
Female BALB/c By and C57BL/6 mice were obtained from Jackson Laboratories and were used between 8 and 10 weeks of age. Mice were given food and water ad libitum and were kept in a 12 hour light and 12 hour dark cycle.
For murine cultures, minimal essential medium with Hank's salts was supplemented to 1 millimolar with sodium pyruvate, to 0.1 millimolar with nonessential amino acids, to 2 millimolar with 1-glutamine, to 10% (v/v) with heat-inactivated fetal bovine serum, to 50 micrograms per ml with gentamicin, and to 1000 milligrams per liter with sodium bicarbonate and was used as tissue culture medium.
Stock solutions of Vitamin D derivatives were made in argon-saturated ethanol at a final concentration of 1×10^-2 molar, were covered with argon before sealing and were stored at -20° C. in the dark. Reduced lighting conditions were always employed when working with compounds. Compounds were diluted in tissue culture medium to 1×10^-4 molar and all subsequent dilutions were done in tissue culture medium containing 1% v/v ethanol. The final dilution into culture vessels was 1:10 thus keeping the vehicle concentration constant at 0.1% while varying the concentration of compound as tabulated in the results. For purposes of control, mixed leukocyte cultures were incubated in medium only (medium control) or in medium containing a final concentration of 0.1% ethanol (vehicle control).
Murine cytotoxic T-lymphocytes were generated in mixed leukocyte cultures by known methods. Specifically, single cell suspensions were prepared from spleens by gentle disruption in balanced salt solution (Hanks' balanced salt solution supplemented to 10%, v/v, with fetal bovine serum). After sedimentation on ice to remove particulate debris, cell suspensions were centrifuged at 400xg and were resuspended in fresh balanced salt solution. Cells to be used as stimulator cells were precluded from proliferating or generating cytotoxic T-lymphocytes by exposure to 1000 rads of gamma irradiation using a ^137 cesium source. […]

[2] = Viability / viable cell recovery of cultured murine cells (trypan blue dye exclusion); details: mouse, trypan blue exclusion
Description: (§1) Murine cytotoxic T-lymphocytes were generated in mixed leukocyte cultures by known methods. Specifically, single cell suspensions were prepared from spleens by gentle disruption in balanced salt solution (Hanks' balanced salt solution supplemented to 10%, v/v, with fetal bovine serum). After sedimentation on ice to remove particulate debris, cell suspensions were centrifuged at 400xg and were resuspended in fresh balanced salt solution. Cells to be used as stimulator cells were precluded from proliferating or generating cytotoxic T-lymphocytes by exposure to 1000 rads of gamma irradiation using a ^137 cesium source. […] Unless otherwise indicated, mixed leukocyte cultures were incubated at 37° C. for 6 days in a humidified atmosphere of 5% CO2 in air. The murine cytotoxic T-lymphocyte assay was conducted as follows. […] Cell pellets were resuspended in tissue culture medium and viable cells were enumerated by microscopy after exposure to trypan blue. Percent viability was calculated according to the formula: [formula] During the mixed leukocyte culture phase of the murine tests, three each of medium control and vehicle control cultures were included; each being assayed separately for cell viability and CTL activity. Unless otherwise indicated, single cultures were used to test for the effect of a particular concentration of any Vitamin D derivative. Moreover, cell viability was generally assessed only from control cultures; the resultant mean values being used to prepare desired viable effector cell concentrations from all cultures. The results for control cultures are expressed as the mean from replicate mixed leukocyte cultures±standard deviation thus establishing the between-culture variability inherent to any particular experiment. That changes in CTL activity were compound-induced was evidenced by dose-dependent changes in CTL activity measured from single cultures which exceeded the variability of the test system. […] The data shown in Table II below address this point. […] | ^b The viability of cells from each culture was determined by trypan

cultured murine cells = test: as above; details: immunosuppressive concentrations
Description: as §1

With `C=C1/C(=C\C=C2/CCC[C@]3(C)[C@@H]([C@H](C)/C=C/[C@H](C)C(C)(C)O)CC[C@@H]23)C[C@@H](O)C[C@@H]1O` [1α,25-(OH)2 --D2, 1α,25-Dihydroxyergocalciferol] the “suppression of murine cytotoxic T-lymphocyte responses (in words)” value [1] was “suppress murine cytotoxic T-lymphocyte responses”, the inhibition at 10 µM ([1]; Mus musculus, T-lymphocyte, Table I, 1 × 10^-5 molar, vs vehicle control, read-out: Inhibition of CTL activity (%)) was 91% and the inhibition at 1 µM ([1]; Mus musculus, T-lymphocyte, Table I, 1 × 10^-6 molar, vs vehicle control, read-out: Inhibition of CTL activity (%)) was 63%. The inhibition at 0.1 µM ([1]; Mus musculus, T-lymphocyte, Table I, 1 × 10^-7 molar, vs vehicle control, read-out: Inhibition of CTL activity (%)) was 48%, the inhibition at 0.01 µM ([1]; Mus musculus, T-lymphocyte, Table I, 1 × 10^-8 molar, vs vehicle control, read-out: Inhibition of CTL activity (%)) was 40% and the inhibition at 0.001 µM ([1]; Mus musculus, T-lymphocyte, Table I, 1 × 10^-9 molar, vs vehicle control, read-out: Inhibition of CTL activity (%)) was 20%. It also gave an inhibition at 0.0001 µM ([1]; Mus musculus, T-lymphocyte, Table I, 1 × 10^-10 molar, vs vehicle control, read-out: Inhibition of CTL activity (%)) of 3%, an inhibition at 1 µM ([1]; Mus musculus, T-lymphocyte, Table II, 1 × 10^-6 molar, vs vehicle, read-out: Inhibition of CTL activity (%)) of 56% and an inhibition at 0.1 µM ([1]; Mus musculus, T-lymphocyte, Table II, 1 × 10^-7 molar, vs vehicle, read-out: Inhibition of CTL activity (%)) of 56%. For the same compound, the inhibition at 0.01 µM ([1]; Mus musculus, T-lymphocyte, Table II, 1 × 10^-8 molar, vs vehicle, read-out: Inhibition of CTL activity (%)) was 37%, the inhibition at 0.001 µM ([1]; Mus musculus, T-lymphocyte, Table II, 1 × 10^-9 molar, vs vehicle, read-out: Inhibition of CTL activity (%)) was 20% and the inhibition at 0.0001 µM ([1]; Mus musculus, T-lymphocyte, Table II, 1 × 10^-10 molar, vs vehicle, read-out: Inhibition of CTL activity (%)) was 20%. For the same compound, the “CTL activity (% specific ^51 Cr release)” value ([1]; Table I, 1 × 10^-5 molar) was 5 % specific ^51 Cr release, the “CTL activity (% specific ^51 Cr release)” value ([1]; Table I, 1 × 10^-6 molar) was 20 % specific ^51 Cr release and the “CTL activity (% specific ^51 Cr release)” value ([1]; Table I, 1 × 10^-7 molar) was 28 % specific ^51 Cr release. The “CTL activity (% specific ^51 Cr release)” value ([1]; Table I, 1 × 10^-8 molar) was 32 % specific ^51 Cr release, the “CTL activity (% specific ^51 Cr release)” value ([1]; Table I, 1 × 10^-9 molar) was 43 % specific ^51 Cr release and the “CTL activity (% specific ^51 Cr release)” value ([1]; Table I, 1 × 10^-10 molar) was 52 % specific ^51 Cr release. The “CTL activity (% specific ^51 Cr release)” value ([1]; Table II, 1 × 10^-6 molar) was 21 % specific ^51 Cr release, the “CTL activity (% specific ^51 Cr release)” value ([1]; Table II, 1 × 10^-7 molar) was 21 % specific ^51 Cr release and the “CTL activity (% specific ^51 Cr release)” value ([1]; Table II, 1 × 10^-8 molar) was 30 % specific ^51 Cr release. The “CTL activity (% specific ^51 Cr release)” value ([1]; Table II, 1 × 10^-9 molar) was 38 % specific ^51 Cr release, the “CTL activity (% specific ^51 Cr release)” value ([1]; Table II, 1 × 10^-10 molar) was 38 % specific ^51 Cr release and the viability at 0.0001 µM [2] was 57%. For the same compound, the viability at 0.001 µM [2] was 58%, the viability at 0.01 µM [2] was 57% and the viability at 0.1 µM [2] was 57%. The viability at 1 µM [2] was 57% and the “toxicity to cultured murine cells (in words)” value (cultured murine cells) was “not toxic to cultured murine cells”.
